Paper PMC9558053, “Development of a novel high-throughput screen for the identification of new inhibitors of protein S-acylation” (The Journal of Biological Chemistry, 2022)

Biological target: T1, human zDHHC17 (Homo sapiens, UniProt Q8IUH5)
T1 construct: expressed in transfected cells; host or cells: HEK293T
Assay: GFP-SNAP25b S-acylation in HEK293T cells co-expressing zDHHC17
Type: cell-based
Details: in cellulo HEK293T, compound 25 μM; for inhibition at 25 µM: HEK-293T, read-out: SNAP25 S-acylation inhibition (%), zDHHC17; for SNAP25 S-acylation inhibition (%), zDHHC17: 25 µM
Method: We next investigated whether the identified compounds were effective at inhibiting zDHHC enzyme isoforms other than zDHHC2 (Fig. 6 and Table 1). […] We therefore treated cells coexpressing GFP-SNAP25 and each of these zDHHC enzymes with 25 μM of TTZ-1 and TTZ-2 and studied the subsequent effect on SNAP25 S-acylation. […] Importantly, the level of enzyme expression was unaffected by the compounds. […] As any major differences in the expression levels of the different enzymes could in theory contribute to the apparent differential effects of TTZ-1 and TTZ-2, we directly compared the expression of zDHHC2, zDHHC3, zDHHC7, zDHHC15, and zDHHC17 when transfected in HEK293T cells together with GFP-SNAP25.
Figure 6 Activity of TTZ-1 and TTZ-2 against SNAP25 S-acylation by human zDHHC2, zDHHC3, zDHHC7, zDHHC15, and zDHHC17 expressed in mammalian cells.A–E, HEK293T cells were transfected with a plasmid encoding GFP-SNAP25b together with either a control plasmid pEF-BOS-HA (pEF) or a plasmid encoding either HA-tagged human zDHHC2 (zD2) (A), zDHHC3 (zD3) (B), zDHHC7 (zD7) (C), zDHHC15 (zD15) (D), or zDHHC17 (zD17) (E) for 24 h. Cells were then preincubated for 4 h with TTZ-1 or TTZ-2 (25 μM final) or DMSO control before metabolic labeling with 100 μM C16:0-azide for 4 h. Cells were lysed, and proteins having incorporated C16:0-azide were labeled by click chemistry with an alkyne-IR800 dye. Protein samples were then resolved by SDS-PAGE and transferred to nitrocellulose membranes that were first stained with an infrared-680 total protein stain. Membranes were then destained and probed with an anti-HA antibody (IR680), followed by an anti-GFP antibody (IR680). Representative images are shown, and panels are presented in the following order (from top to bottom): click chemistry signal (Click [IR800]), GFP and HA immunoblots (IR680), and Total Protein Stain (IR680). Positions of the molecular mass markers (in kilodalton) are indicated on the right side of the membranes. Three independent experiments were performed either in duplicate or in triplicate, and the quantification data were gathered on the graphs below each set of membranes. […] Filled circles represent individual samples. […] Filled circles represent individual samples. Statistical analysis (ANOVA) was performed to test whether there was a significant difference between the zDHHC expression of cells treated with DMSO as a control versus similar samples treated with TTZ-1 or TTZ-2 (∗∗p < 0.01). F, samples from A, B, C, D, and E (expressing GFP-SNAP25 and HA-tagged zDHHC enzymes and treated with DMSO) were loaded on an SDS-PAGE gel and transferred to a nitrocellulose membrane. The membrane was probed for the expression of the HA-tagged enzymes with an anti-HA antibody (IR680). […]

T1 sequence (Q8IUH5 whole entry): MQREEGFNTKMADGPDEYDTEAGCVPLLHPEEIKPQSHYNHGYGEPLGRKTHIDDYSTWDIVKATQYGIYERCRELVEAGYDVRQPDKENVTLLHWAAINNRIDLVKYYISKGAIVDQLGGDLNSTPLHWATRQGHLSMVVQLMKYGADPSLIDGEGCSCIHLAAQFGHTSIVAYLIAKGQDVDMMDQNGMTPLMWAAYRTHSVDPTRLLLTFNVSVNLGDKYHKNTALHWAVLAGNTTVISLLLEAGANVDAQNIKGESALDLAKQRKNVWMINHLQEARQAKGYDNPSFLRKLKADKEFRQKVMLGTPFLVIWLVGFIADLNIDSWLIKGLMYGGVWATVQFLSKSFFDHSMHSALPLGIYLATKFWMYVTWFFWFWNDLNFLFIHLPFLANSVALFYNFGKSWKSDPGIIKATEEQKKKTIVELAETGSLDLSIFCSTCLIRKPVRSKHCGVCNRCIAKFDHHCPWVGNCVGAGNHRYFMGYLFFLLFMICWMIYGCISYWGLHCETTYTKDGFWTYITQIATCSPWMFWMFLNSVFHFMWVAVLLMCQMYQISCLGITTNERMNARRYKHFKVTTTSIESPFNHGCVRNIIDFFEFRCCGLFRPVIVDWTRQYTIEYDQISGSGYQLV

| SMILES | inhibition at 25 µM [%] | SNAP25 S-acylation inhibition (%), zDHHC17 [%] |
| --- | --- | --- |
| O=C(Nc1cccc2c1OC(c1nnn[nH]1)CN2)c1ccc(OCCCCc2ccccc2)cc1 (stereo not shown) [TTZ-2, N-(2-(1H-Tetrazol-5-yl)-3,4-dihydro-2H-benzo[b][1,4]oxazin-8-yl)-4-(4-phenylbutoxy)benzamide] | 35 to 40 | 39 ± 7 |
| CCCCCCCOc1ccc(C(=O)Nc2cccc3c2OC(c2nnn[nH]2)CN3)cc1 (stereo not shown) [TTZ-1, N-(2-(1H-Tetrazol-5-yl)-3,4-dihydro-2H-benzo[b][1,4]oxazin-8-yl)-4-(heptyloxy)benzamide] | 35 to 40 | 36 ± 7 |
